Laboratory results as given in article PMC7498324, “Structure and mechanism of CutA, RNA nucleotidyl transferase with an unusual preference for cytosine” (Nucleic Acids Research, 2020).

What follows are molecules tested on T1, CutA (TtCutA) (assay: fluorescence anisotropy competition with ATP-Cy5).
T1 construct: TtCutA^240-603
Assay type: binding, Thermothielavioides terrestris

Row | Structure (SMILES) | IC50 [nM]
1 | Nc1nc2c(ncn2[C@@H]2O[C@H](COP(=O)(O)OP(=O)(O)OP(=O)(O)O)[C@@H](O)[C@H]2O)c(=O)[nH]1 [GTP] | 1050 ± 56
2 | Nc1ccn([C@@H]2O[C@H](COP(=O)(O)OP(=O)(O)OP(=O)(O)O)[C@@H](O)[C@H]2O)c(=O)n1 [CTP] | 467 ± 16
3 | O=c1ccn([C@@H]2O[C@H](CO[P@@](=O)(O)O[P@@](=O)(O)OP(=O)(O)O)[C@@H](O)[C@H]2O)c(=O)[nH]1 [UTP] | 537 ± 23
4 | Nc1ncnc2c1ncn2[C@@H]1O[C@H](COP(=O)(O)OP(=O)(O)OP(=O)(O)O)[C@@H](O)[C@H]1O [ATP] | 562 ± 21
